Laboratory results taken from patent US20230416316A1, “ADP-RIBOSE BINDING PEPTIDES WITH ANTI-CANCER ACTIVITY AND USE THEREOF” (PearlsInMires Co., Ltd., priority 2021, published 2023).

Key:
Format in all cases: cell-based
Aspc-1 cells [1] = assay: ADP-ribose level by ELISA in Aspc-1 cells; details: 0.2-32 μM peptide, 24 hours
Protocol: (§1) The peptides of Examples 1 to 28 of the present disclosure are designed to inhibit the action of poly ADP-ribose degradation enzyme. In Experimental Example 1, it was confirmed through cell experiments whether poly ADP-ribose was inhibited from being degraded by each of the peptides and accumulated in cancer cells.
(§2) 5×10^5 Aspc-1 cells were divided into a group not treated with the peptide of Example and a group treated with 0.2, 1, 2, 4, 8, 16, and 32 μM of the peptide of Example 3 (SEQ ID NO: 3), and cultured for 24 hours under conditions of 37° C. and 5% CO2 in RPMI-1640 medium supplemented with 10% FBS, 100 units/ml penicillin, and 100 μg/ml streptomycin. The medium of the cultured cells was removed, and the samples were treated with RIPA buffer and 1% SDS. The prepared supernatant was used for ELISA analysis to detect and analyze ADP-ribose.

Aspc-1 cells [2] = assay: Cell viability (MTT, photomicrographs) in Aspc-1 cells; details: 16 μM peptide, 24 hours
Protocol: (§3) After culturing 3×10^3 Aspc-1 cells in a 96-well plate for 24 hours under conditions of 37° C. and 5% CO2, the cells were either untreated or treated with the peptides of Examples 1 to 28 at a concentration of 16 μM, respectively. Then, the cells were cultured for 24 hours under conditions of 37° C. and 5% CO2, and 10 μl of 3-(4,5-dimethylthiazol-2-yl)-2,5-diphenyltetrazolium bromide reagent was added to each well, followed by reaction for 1 hour. After the reaction was completed, the reagent was removed, 200 μl of dimethyl sulfoxide was added to each well, and the absorbance was measured to confirm cell viability.

H1975 cells [3] = assay: Cell viability (MTT, photomicrographs) in H1975 cells; details: 16 μM peptide, 24 hours
Protocol: as §3, with “H1975” for “Aspc-1”

H1975 cells [4] = assay: ADP-ribose level by ELISA in H1975 cells; details: 0.2-32 μM peptide, 24 hours
Protocol: as §1
as §2, with “5×10^5 H1975” for “5×10^5 Aspc-1”, “Example 2” for “Example 3”, “NO: 2),” for “NO: 3),”

MDA-MB-231 cells = assay: Cell viability (MTT, photomicrographs) in MDA-MB-231 cells; details: 16 μM peptide, 24 hours
Protocol: as §3, with “culturing 3×10^3 MDA-MB-231 cells in” for “culturing 3×10^3 Aspc-1 cells in”, “and 5% C02, the cells” for “and 5% CO2, the cells”

Hep G2 cells = assay: Cell viability (MTT, photomicrographs) in Hep G2 cells; details: 16 μM peptide, 24 hours
Protocol: 2-4. Change in viability in Hep G2 cells according to treatment with ADP-ribose binding peptide After culturing 3×10^3 Hep G2 cells in a 96-well plate for 24 hours under conditions of 37° C. and 5% CO2, the cells were either untreated or treated with the peptides of Examples 1 to 28 at a concentration of 16 μM, respectively. Then, the cells were cultured for 24 hours under conditions of 37° C. and 5% CO2, and 10 μl of 3-(4,5-dimethylthiazol-2-yl)-2,5-diphenyltetrazolium bromide reagent was added to each well, followed by reaction for 1 hour. After the reaction was completed, the reagent was removed, 200 μl of dimethyl sulfoxide was added to each well, and the absorbance was measured to confirm cell viability.

Caki-1 cells = assay: Cell viability (MTT, photomicrographs) in Caki-1 cells; details: 16 μM peptide, 24 hours
Protocol: as §3, with “Caki-1” for “Aspc-1”

HCT116 cells = assay: Cell viability (MTT, photomicrographs) in HCT116 cells; details: 16 μM peptide, 24 hours
Protocol: as §3, with “HCT116” for “Aspc-1”

U-87MG cells [5] = assay: Cell viability (MTT, photomicrographs) in U-87MG cells; details: 16 μM peptide, 24 hours
Protocol: as §3, with “U-87MG” for “Aspc-1”

U-87MG cells [6] = assay: ADP-ribose level by ELISA in U-87MG cells; details: 0.2-32 μM peptide, 24 hours
Protocol: as §1
5×10^5 U-87MG cells were divided into a group not treated with the peptide of Example and a group treated with 0.2, 1, 2, 4, 8, 16, and 32 μM of the peptide of Example 1 (SEQ ID NO: 1) or Example 8 (SEQ ID NO: 8), and cultured for 24 hours under conditions of 37° C. and 5% CO2 in Eagle's minimum essential medium (EMEM) supplemented with 10% FBS, 100 units/ml penicillin, and 100 μg/ml streptomycin. The medium of the cultured cells was removed, and the samples were treated with RIPA buffer and 1% SDS. The prepared supernatant was used for ELISA analysis to detect and analyze ADP-ribose.

**Q.** What does the source list for “APYIIDLPSWTQFRQDIGTMRAVRR (APYIIDLPSWTQFRQDTGTMRAVRR; ADP-ribose binding peptide) [Example 3]”?
**A.** amount of increase in ADP-ribose (fold change) compared to the control group (Aspc-1 cells [1]): significant increase in the amount of ADP-ribose in a concentration-dependent manner; cancer cell growth and survival (Aspc-1 cells [2]): inhibited from growing and killed

**Q.** Which results are given for “APYIIDLQSMNQFRQDIGTLRPVRR (APYIIDLQSMNQFRQDTGTLRPVRR; ADP-ribose binding peptide) [Example 2]”?
**A.** cancer cell growth and survival (H1975 cells [3]): inhibited from growing and killed; amount of increase in ADP-ribose (fold change) compared to the control group (H1975 cells [4]): significant increase in the amount of ADP-ribose in a concentration-dependent manner

**Q.** Which “cancer cell growth and survival” value (Aspc-1 cells [2]) does the source give for “GRKKRRQRRRPQAPYIIDLPSWTQFRQDIGTMRAVRR (GRKKRRQRRRPQAPYIIDLPSWTQFRQDTGTMRAVRR; ADP-ribose binding peptide with CPP) [Example 17]” here?
**A.** completely killed

**Q.** With “GRKKRRQRRRPQAPYIIDLQSMNQFRQDTGTLRPVRR (ADP-ribose binding peptide with CPP) [Example 16]” as the sequence, how does the “cancer cell growth and survival” value (H1975 cells [3]) read?
**A.** completely killed

**Q.** How did the “cancer cell growth and survival” value (MDA-MB-231 cells) turn out when “GRKKRRQRRRPQFCYLIYENSMSQMNRQTRRRRRLRR (GRKKRRQRRRPQFCYLIYFNSMSQMNRQTRRRRRLRR; ADP-ribose binding peptide with CPP) [Example 19]” was run?
**A.** completely killed

**Q.** With “GRKKRRQRRRPQFLYVADLENMVQYRRNEHGRRRKIKR (ADP-ribose binding peptide with CPP) [Example 25]” as the sequence, how does the “cancer cell growth and survival” value (Hep G2 cells) read?
**A.** completely killed

**Q.** “GRKKRRQRRRPQFSYKIDFAEMKQMNLTTGKQRLIKR (ADP-ribose binding peptide with CPP) [Example 21]” was tested. Which “cancer cell growth and survival” value (Caki-1 cells) did it give?
**A.** completely killed

**Q.** For “GRKKRRQRRRPQFSYVIDENTMGQINRQTQRQRRVRR (GRKKRRQRRRPQFSYVIDFNTMGQINRQTQRQRRVRR; ADP-ribose binding peptide with CPP) [Example 20]”, which “cancer cell growth and survival” value (HCT116 cells) is on record?
**A.** completely killed

**Q.** “GRKKRRQRRRPQGRYDVHLGERMRYAVYWDELASEVRR (ADP-ribose binding peptide with CPP) [Example 27]” was tested. Which “cancer cell growth and survival” value (HCT116 cells) did it give?
**A.** completely killed

**Q.** “GRKKRRQRRRPQRHYTVNLNTYTATDTKGHSLSVQR (ADP-ribose binding peptide with CPP) [Example 26]” was tested. Which “cancer cell growth and survival” value (MDA-MB-231 cells) did it give?
**A.** completely killed

**Q.** With “GRKKRRQRRRPQRRYTVQFTTMVQVNEETGNRRPVM (ADP-ribose binding peptide with CPP) [Example 23]” as the sequence, how does the “cancer cell growth and survival” value (H1975 cells [3]) read?
**A.** completely killed

**Q.** With “GRKKRRQRRRPQRVYTIDENSMQQINEDTGTARAIQR (GRKKRRQRRRPQRVYTIDFNSMQQINEDTGTARAIQR; ADP-ribose binding peptide with CPP) [Example 18]” as the sequence, how does the “cancer cell growth and survival” value (Hep G2 cells) read?
**A.** completely killed

**Q.** For “GRKKRRQRRRPQTAYEASVCDYLEQQVARGN (ADP-ribose binding peptide with CPP) [Example 28]”, which “cancer cell growth and survival” value (Caki-1 cells) is on record?
**A.** completely killed

**Q.** How did the “cancer cell growth and survival” value (U-87MG cells [5]) turn out when “GRKKRRQRRRPQVPYIIDLQSMHQFRQDIGTMRPVRR (GRKKRRQRRRPQVPYIIDLQSMHQFRQDTGTMRPVRR; ADP-ribose binding peptide with CPP) [Example 15]” was run?
**A.** completely killed

**Q.** For “GRKKRRQRRRPQWIWYWKNESGTWIQYGEEKDKRKN (ADP-ribose binding peptide with CPP) [Example 24]”, which “cancer cell growth and survival” value (Aspc-1 cells [2]) is on record?
**A.** completely killed

**Q.** For “GRKKRRQRRRPQYNYTVNYTTHTQTNKTSSFCRSVRR (ADP-ribose binding peptide with CPP) [Example 22]”, which “cancer cell growth and survival” value (U-87MG cells [5]) is on record?
**A.** completely killed

**Q.** How did the “cancer cell growth and survival” value (H1975 cells [3]) turn out when “RRYTVQFTTMVQVNEETGNRRPVM (ADP-ribose binding peptide) [Example 9]” was run?
**A.** inhibited from growing and killed

**Q.** And the “amount of increase in ADP-ribose (fold change) compared to the control group” value (H1975 cells [4])?
**A.** significant increase in the amount of ADP-ribose in a concentration-dependent manner

**Q.** What does the source list for “VPYIIDLQSMHQFRQDIGTMRPVRR (VPYIIDLQSMHQFRQDTGTMRPVRR; ADP-ribose binding peptide) [Example 1]”?
**A.** amount of increase in ADP-ribose (fold change) compared to the control group (U-87MG cells [6]): significant increase in the amount of ADP-ribose in a concentration-dependent manner; cancer cell growth and survival (U-87MG cells [5]): inhibited from growing and killed

**Q.** How did the “amount of increase in ADP-ribose (fold change) compared to the control group” value (Aspc-1 cells [1]) turn out when “WIWYWKNESGTWIQYGEEKDKRKN (ADP-ribose binding peptide) [Example 10]” was run?
**A.** significant increase in the amount of ADP-ribose in a concentration-dependent manner

**Q.** What about the “cancer cell growth and survival” value (Aspc-1 cells [2]) of the same sequence?
**A.** inhibited from growing and killed

**Q.** “YNYTVNYTTHTQTNKTSSFCRSVRR (ADP-ribose binding peptide) [Example 8]” was tested. Which “amount of increase in ADP-ribose (fold change) compared to the control group” value (U-87MG cells [6]) did it give?
**A.** significant increase in the amount of ADP-ribose in a concentration-dependent manner

**Q.** And the “cancer cell growth and survival” value (U-87MG cells [5])?
**A.** inhibited from growing and killed
